Source: patent US7998972B2, “1H-imidazo[4,5-c]quinoline derivatives in the treatment of protein kinase dependent diseases” (Novartis AG, priority 2002, dated 2011)
pIC50: −log10 of the molar value.

Biological target: PKB/Akt (Homo sapiens, UniProt P31749)
Assay: Inhibition of PKB/Akt in vitro
Assay type: biochemical
Settings: PDK1-activated GST-PKB, LRRPRTRSFS peptide, 20 μM ATP; read-out: IC50 range class, inhibition of PKB/Akt in vitro
Method: The activity as inhibitor of PKB can be determined as follows:
To fully activate PKB, the enzyme is exposed to catalytic amounts of PDK1. GST-PKB (100 ng, Specific Activity: 0.2 nmoles/mg/mins) is incubated for 30 min at room temperature (rt) with purified recombinant GST-PDK1 (1 ng, SA: 2 nmoles/min/mg). The activation is performed as follows: 0.1 μg of GST-PDK1 (0.05 μl) and 10 μg of GST-PKB (0.45 μl) are mixed in a total volume of 0.75 μl containing 15 μM ATP, 3 mM MgCl2, 20 mM Hepes (pH 7.6) for 30 mins at rt. The reaction is subsequently stopped by adding 0.25 μl containing 30% glycerol (w/w) and 0.06 μl of 500 mM EDTA. 100-500 ng (0.01-0.05 μl) activated GST-PKB is incubated in a final volume of 30 μl with 10 μM of the LRRPRTRSFS peptide, 10 mM Mg-acetate, 50 mM MOPS (PH 7.5), 1 mM DTT and 300 μg/ml BSA, 20 μM ATP (0.1 μCi gamma-^33P-ATP). The reaction is carried out for 30 min at rt in the presence of either 1% DMSO or the text compound of the formula I at the required concentration in 1% DMSO. The reaction is terminated by the addition of 20 μl 125 mM EDTA. 30 ill of each sample is spotted onto P81 Whatman and the paper squares processed as described in Ferrari, S. and Thomas, G. (1991) Meth. Enzymol. 200, 159-169. IC50 values are calculated by linear regression analysis of the percentage inhibition of each compound in duplicate.

Chain of PKB/Akt (P31749 whole entry): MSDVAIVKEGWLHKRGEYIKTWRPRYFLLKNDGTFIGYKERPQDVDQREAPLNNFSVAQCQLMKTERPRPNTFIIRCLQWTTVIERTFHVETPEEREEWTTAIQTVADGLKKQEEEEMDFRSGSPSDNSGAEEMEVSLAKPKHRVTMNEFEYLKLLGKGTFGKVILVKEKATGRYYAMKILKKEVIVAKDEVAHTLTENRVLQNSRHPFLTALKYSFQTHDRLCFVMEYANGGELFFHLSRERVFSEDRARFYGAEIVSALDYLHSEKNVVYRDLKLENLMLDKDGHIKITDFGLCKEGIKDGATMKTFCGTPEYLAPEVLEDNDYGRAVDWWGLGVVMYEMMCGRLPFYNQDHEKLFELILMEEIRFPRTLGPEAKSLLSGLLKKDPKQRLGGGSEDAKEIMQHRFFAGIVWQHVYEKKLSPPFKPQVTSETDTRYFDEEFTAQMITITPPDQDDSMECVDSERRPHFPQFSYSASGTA

SMILES | pIC50
COc1ccc(-c2ccc3ncc4ncn(-c5ccccc5Cl)c4c3c2)cc1 [Example 137, 1-(2-Chloro-phenyl)-8-(4-methoxy-phenyl)-1H-imidazo[4,5-c]quinoline] | 5.70 to 6.00
Fc1ccccc1-n1cnc2cnc3ccc(-c4ccccc4)cc3c21 [Example 54, 1-(2-Fluoro-phenyl)-8-phenyl-1H-imidazo[4,5-c]quinoline] | 5.70 to 6.00
